{"source": "patent US20180327807A1", "about": "“ASSAY FOR DETERMINING ANTIBIOTICS IN WASTE” (DSM Sinochem Pharmaceuticals Netherlands B.V., priority 2015, published 2018)", "system": "microorganism in the agar layer", "assay": "Delvotest SP NT microbial growth inhibition assay, colour of the agar indicator, with or without added milk", "assay_type": "cell-based", "settings": "2 ppb test solution, with added milk or added water, 60 to 210 min", "method": "From all samples solutions 100 μl is brought in the Delvotest SP NT Ampoule with an Eppendorf pipet of 100 μl. With the point of the pipet the tube cover top of the ampoule will be penetrated and the 100 μl is added to the ampoule. Put the ampoules for 2.5 h in a water bath of 65° C. Seal the ampoule with tape. After 2.5 h the ampoules are removed from the water bath. Check if the blanks are yellow, if not prolong the time in the water bath with 30 min. Yellow is negative and purple is positive. Positive means there is antimicrobial activity present in the sample which is higher than 2 ppb (calculated as penicillin G K). Two samples, a blank (water) and 2 ppb penicillin G K test solution were analysed using commercially available (DSM Food Specialties B.V., Delft, The Netherlands) Delvotest SP NT analogous to the supplier's manual. Two ampoules were filled with blank sample. To one milk (regular low-fat milk from a Dutch supermarket was used in the present example) was added according to the instruction as outlined in Example 1 and to the other the same amount of water was added. […] The ampoules filled with sample were incubated at 64° C.+/−2° C.) and the colour of the agar in the ampoules was visually recorded at several points in time. […]", "data": [{"smiles": "CC1(C)S[C@@H]2[C@H](NC(=O)Cc3ccccc3)C(=O)N2[C@H]1C(=O)[O-].[K+]", "note": "[Penicillin G K test solution, penicillin G K]", "values": [{"measurement": "colour change of the indicator (inhibiting effect on growth of the microorganism)", "result": "do not show any colour change"}]}]}
